The text below walks through data of patent US20260256751A1, “COMBINATION OF BETA-2-ADRENERGIC RECEPTOR AGONISTS AND GLP-1 RECEPTOR AGONISTS FOR USE IN TREATING HYPERGLYCAEMIA” (ATROGI AB, priority 2023, published 2026).

Where only a bound is given, the exact number is not on record here.

Assay [1] has as its system differentiated L6-myotubes. In words: Glucose uptake screen (Biological example 1 of WO 2019/053427). The format is cell-based. The note with it: compound at 10 μM, activity relative to isoproterenol at 10 μM, read-out: Biological example 1 of WO 2019/053427 (GU). Summed up: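 Uptake was read out as ^3H-2-deoxyglucose (50 nM, 10 min) radioactivity in NaOH lysates. Beforehand, overnight-starved, differentiated L6 myotubes received compound at 1×10^−5 M with ICI-118551 present for 1 h 40 min, followed by fresh agonist for a further 20 min in glucose-free medium.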

Assay [2] concerns differentiated L6-myotubes. In words: cAMP production relative to isoprenaline (Biological example 2 of WO 2019/053427). The format is cell-based. As to conditions: 0.25 h, compound at 10 μM, activity relative to isoproterenol at 10 μM. Summed up:
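Values are cAMP levels relative to isoprenaline at equal concentration (final 1×10^−5 M for both). Stimulation lasted 15 min in differentiated L6 myotubes, using HBSS buffer (pH 7.4) containing 1 mM IBMX, 5 mM HEPES and 1% BSA.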

Take `CO[C@H]1CC[C@H](C[C@@H]2CC[C@H]([C@@H](O)c3cccc(F)c3)N2)CC1` [Compound 325, (S)-[(2R,5S)-5-{[(1r,4S)-4-methoxycyclohexyl]methyl}-2-pyrrolidinyl](m-fluorophenyl)methanol]: the Emax at 10 µM was over 75% in assay [1] and under 25% in assay [2].

In the case of `CO[C@H]1CC[C@H](C[C@@H]2CC[C@H]([C@H](O)c3cccc(F)c3)N2)CC1` [Compound 326, (R)-[(2R,5S)-5-{[(1r,4S)-4-methoxycyclohexyl]methyl}-2-pyrrolidinyl](m-fluorophenyl)methanol], the results for the Emax at 10 µM in assay [1] and in assay [2] were over 75% and under 25%, respectively.

Regarding `COC(=O)[C@H]1CC[C@@H](CC(C)(C)NC[C@H](O)c2cccc(F)c2)CC1` [Compound 327, methyl (1S,4s)-4-{2-[(R)-2-(m-fluorophenyl)-2-hydroxyethylamino]-2-methylpropyl}cyclohexanecarboxylate], the Emax at 10 µM in assay [1] was over 75%; in assay [2] it was under 25%.

Regarding `COC(=O)[C@H]1CC[C@@H](C(C)(C)NC[C@H](O)c2cccc(F)c2)CC1` [Compound 328, (1S,4s)-8-[(R)-2-(m-fluorophenyl)-2-hydroxyethylamino]-7-methoxy-p-menthan-7-one], the Emax at 10 µM in assay [1] is over 75%; in assay [2], under 25%.

Consider `COCC12CCC([C@@H](O)c3cccc(F)c3)(CC1)N2` [Compound 329, (S)-(m-fluorophenyl){4-(methoxymethyl)-7-azabicyclo[2.2.1]hept-1-yl}methanol], for which the Emax at 10 µM is 25 to 50% in assay [1] and under 25% in assay [2].

On to `COCC12CCC([C@H](O)c3cccc(F)c3)(CC1)N2` [Compound 330, (R)-(m-fluorophenyl){4-(methoxymethyl)-7-azabicyclo[2.2.1]hept-1-yl}methanol], for which the Emax at 10 µM in assay [1] is over 75%; in assay [2], under 25%.

With `CC(C)(C[C@H]1CC[C@@H](C(=O)O)CC1)NC[C@H](O)c1cccc(F)c1` [Compound 331, (1S,4s)-4-{2-[(R)-2-(m-fluorophenyl)-2-hydroxyethylamino]-2-methylpropyl}cyclohexanecarboxylic acid], the values for the Emax at 10 µM in assay [1] and in assay [2] were 25 to 50% and under 25%, respectively.

Consider `CO[C@H]1CC[C@H](C[C@@H]2CC[C@H]([C@@H](O)c3cncc(F)c3)N2)CC1` [Compound 332, (S)-[(2R,5S)-5-{[(1r,4S)-4-methoxycyclohexyl]methyl}-2-pyrrolidinyl](5-fluoro-3-pyridyl)methanol], for which the Emax at 10 µM in assay [1] was 25 to 50%; in assay [2] it was under 25%.

Regarding `CO[C@H]1CC[C@H](C[C@@H]2CC[C@H]([C@H](O)c3cncc(F)c3)N2)CC1` [Compound 333, (R)-[(2R,5S)-5-{[(1r,4S)-4-methoxycyclohexyl]methyl}-2-pyrrolidinyl](5-fluoro-3-pyridyl)methanol], the Emax at 10 µM was 25 to 50% in assay [1] and under 25% in assay [2].

For the compound `CO[C@H]1CC[C@H](C[C@H]2CC[C@H]([C@@H](O)c3cccc(F)c3)N2)CC1` [Compound 334, (S)-[(2R,5R)-5-{[(1r,4R)-4-methoxycyclohexyl]methyl}-2-pyrrolidinyl](m-fluorophenyl)methanol], the Emax at 10 µM is 25 to 50% in assay [1] and under 25% in assay [2].

With `CO[C@H]1CC[C@H](C[C@H]2CC[C@H]([C@H](O)c3cccc(F)c3)N2)CC1` [Compound 335, (R)-[(2R,5R)-5-{[(1r,4R)-4-methoxycyclohexyl]methyl}-2-pyrrolidinyl](m-fluorophenyl)methanol], the Emax at 10 µM in assay [1] was over 75%; in assay [2] it was under 25%.

On to `CO[C@H]1CC[C@H](C[C@@H]2CC[C@H]([C@@H](O)c3ccccc3F)N2)CC1` [Compound 336], for which the Emax at 10 µM in assay [1] was 25 to 50%; in assay [2] it was under 25%.

Take `CO[C@H]1CC[C@H](C[C@@H]2CC[C@H]([C@H](O)c3ccccc3F)N2)CC1` [Compound 337, (R)-[(2R,5S)-5-{[(1r,4S)-4-methoxycyclohexyl]methyl}-2-pyrrolidinyl](o-fluorophenyl)methanol]: the figures for the Emax at 10 µM in assay [1] and in assay [2] were over 75% and under 25%, respectively.

`CO[C@H]1CC[C@H](C[C@H]2CC[C@H]([C@@H](O)c3ccccc3F)N2)CC1` [Compound 338, (S)-[(2R,5R)-5-{[(1r,4R)-4-methoxycyclohexyl]methyl}-2-pyrrolidinyl](o-fluorophenyl)methanol]: the Emax at 10 µM in assay [1] is 50 to 75%; in assay [2], under 25%.

`CO[C@H]1CC[C@H](C[C@H]2CC[C@H]([C@H](O)c3ccccc3F)N2)CC1` [Compound 339, (R)-[(2R,5R)-5-{[(1r,4R)-4-methoxycyclohexyl]methyl}-2-pyrrolidinyl](o-fluorophenyl)methanol]: the Emax at 10 µM in assay [1] is over 75%; in assay [2], 25 to 50%.

In the case of `CO[C@H]1CC[C@H](C[C@H]2CC[C@H]([C@@H](O)c3cncc(F)c3)N2)CC1` [Compound 340, (S)-[(2R,5R)-5-{[(1r,4R)-4-methoxycyclohexyl]methyl}-2-pyrrolidinyl](5-fluoro-3-pyridyl)methanol], the Emax at 10 µM in assay [1] was 25 to 50%; in assay [2], under 25%.

Regarding `CO[C@H]1CC[C@H](C[C@H]2CC[C@H]([C@H](O)c3cncc(F)c3)N2)CC1` [Compound 341, (R)-[(2R,5R)-5-{[(1r,4R)-4-methoxycyclohexyl]methyl}-2-pyrrolidinyl](5-fluoro-3-pyridyl)methanol], the Emax at 10 µM was over 75% in assay [1] and under 25% in assay [2].

For the compound `COC(=O)[C@H]1CC[C@H](CCC(C)(C)NC[C@H](O)c2cncc(F)c2)CC1` [Compound 342, methyl (1R,4r)-4-{3-[(R)-2-(5-fluoro-3-pyridyl)-2-hydroxyethylamino]-3-methylbutyl}cyclohexanecarboxylate], the Emax at 10 µM in assay [1] is over 75%; in assay [2], under 25%.

On to `CC(C)(CC[C@H]1CC[C@H](C(=O)O)CC1)NC[C@H](O)c1cncc(F)c1` [Compound 343, (1R,4r)-4-{3-[(R)-2-(5-fluoro-3-pyridyl)-2-hydroxyethylamino]-3-methylbutyl}cyclohexanecarboxylic acid], for which the figures for the Emax at 10 µM in assay [1] and in assay [2] were 25 to 50% and under 25%, respectively.

As for `CC(C)(NC[C@H](O)c1cncc(F)c1)[C@H]1CC[C@H](N)CC1` [Compound 344, (R)-1-(5-fluoro-3-pyridyl)-2-{1-methyl-1-[(1r,4R)-4-aminocyclohexyl]ethylamino}-1-ethanol], the Emax at 10 µM in assay [1] and in assay [2] was under 25% throughout.

For the compound `CC(C)(NC[C@H](O)c1cncc(F)c1)[C@H]1CC[C@H](NS(C)(=O)=O)CC1` [Compound 345, (R)-1-(5-fluoro-3-pyridyl)-2-{1-methyl-1-[(1r,4R)-4-(mesylamino)cyclohexyl]ethylamino}-1-ethanol], the Emax at 10 µM in assay [1] was 25 to 50%; in assay [2] it was under 25%.

With `CC(=O)N[C@H]1CC[C@H](C(C)(C)NC[C@H](O)c2cncc(F)c2)CC1` [Compound 346, N-[(1R,4r)-4-{1-[(R)-2-(5-fluoro-3-pyridyl)-2-hydroxyethylamino]-1-methylethyl}cyclohexyl]acetamide], the figures for the Emax at 10 µM in assay [1] and in assay [2] were over 75% and under 25%, respectively.

On to `CC(C)(CC[C@H]1CC[C@@H](C(=O)O)CC1)NC[C@H](O)c1cncc(F)c1` [Compound 347, (1S,4s)-4-{3-[(R)-2-(5-fluoro-3-pyridyl)-2-hydroxyethylamino]-3-methylbutyl}cyclohexanecarboxylic acid], for which the Emax at 10 µM in assay [1] was over 75%; in assay [2], under 25%.

With `CC(C)(CC[C@H]1CC[C@H](C(=O)O)CC1)NC[C@H](O)c1cccc(F)c1` [Compound 348, (1R,4r)-4-{3-[(R)-2-(m-fluorophenyl)-2-hydroxyethylamino]-3-methylbutyl}cyclohexanecarboxylic acid], the Emax at 10 µM in assay [1] and in assay [2] was under 25% throughout.

As to `COC(=O)[C@H]1CC[C@@H](CCC(C)(C)NC[C@H](O)c2cncc(F)c2)CC1` [Compound 349, methyl (1S,4s)-4-{3-[(R)-2-(5-fluoro-3-pyridyl)-2-hydroxyethylamino]-3-methylbutyl}cyclohexanecarboxylate], the values for the Emax at 10 µM in assay [1] and in assay [2] were over 75% and 25 to 50%, respectively.

Turning to `COC(=O)[C@H]1CC[C@H](CCC(C)(C)NC[C@H](O)c2cccc(F)c2)CC1` [Compound 350, methyl (1R,4r)-4-{3-[(R)-2-(m-fluorophenyl)-2-hydroxyethylamino]-3-methylbutyl}cyclohexanecarobxylate], the results for the Emax at 10 µM in assay [1] and in assay [2] were over 75% and under 25%, respectively.

Consider `COC(=O)[C@H]1CC[C@@H](CCC(C)(C)NC[C@H](O)c2cccc(F)c2)CC1` [Compound 351, methyl (1S,4s)-4-{3-[(R)-2-(m-fluorophenyl)-2-hydroxyethylamino]-3-methylbutyl}cyclohexanecarboxylate], for which the Emax at 10 µM in assay [1] was over 75%; in assay [2] it was 25 to 50%.

For the compound `CC(C)(CC[C@H]1CC[C@@H](C(=O)O)CC1)NC[C@H](O)c1cccc(F)c1` [Compound 352, (1S,4s)-4-{3-[(R)-2-(m-fluorophenyl)-2-hydroxyethylamino]-3-methylbutyl}cyclohexanecarboxylc acid], the Emax at 10 µM in assay [1] is 25 to 50%; in assay [2], under 25%.

Consider `COC(=O)[C@H]1CC[C@H](CC(C)(C)NC[C@H](O)c2cccc(F)c2)CC1` [Compound 353, methyl (1R,4r)-4-{2-[(R)-2-(m-fluorophenyl)-2-hydroxyethylamino]-2-methylpropyl}cyclohexanecarboxylate], for which the Emax at 10 µM in assay [1] was over 75%; in assay [2], under 25%.
